From patent US9708340B2, “Urea derivatives and their use as fatty-acid binding protein (FABP) inhibitors” (Hoffmann-La Roche Inc., priority 2013, dated 2017)
pIC50: −log10 of the molar value. Read-outs that look alike come from different tables or passages of the source.

Legend:
human FABP5 (huFABP5) = human FABP5 (huFABP5) (Homo sapiens (Human), UniProt Q01469); experiment: Tb TR-FRET assay, binding of Bodipy labeled fatty acid to His6 tagged huFABP5; conditions: read-out: IC50 h-fabp5-ecoli-r
human FABP4 (huFABP4) = human FABP4 (huFABP4) (Homo sapiens (Human), UniProt P15090); experiment: Tb TR-FRET assay, binding of Bodipy labeled fatty acid to His6 tagged huFABP4; conditions: read-out: IC50 h-fabp4-ecoli-r
[1] = 50 nM FABP protein, […] Bodipy labeled fatty acid

Sequence of human FABP5 (huFABP5) (Q01469 whole entry): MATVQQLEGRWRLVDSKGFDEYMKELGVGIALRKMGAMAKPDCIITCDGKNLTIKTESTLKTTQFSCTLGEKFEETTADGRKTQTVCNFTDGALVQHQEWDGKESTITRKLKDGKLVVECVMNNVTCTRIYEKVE
Sequence of human FABP4 (huFABP4) (P15090 whole entry): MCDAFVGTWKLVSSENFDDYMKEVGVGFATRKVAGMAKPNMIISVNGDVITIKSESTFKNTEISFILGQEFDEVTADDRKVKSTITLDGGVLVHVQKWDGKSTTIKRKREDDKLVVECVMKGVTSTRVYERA

Molecule `O=C(O)[C@@H]1[C@H]2C[C@H]2CN1C(=O)Nc1ccccc1-c1ccccc1` (racemic) [Example 9, (1SR,2SR,5RS)-3-(Biphenyl-2-ylcarbamoyl)-3-aza-bicyclo[3.1.0]hexane-2-carboxylic acid] has a pIC50 (human FABP5 (huFABP5)) of under 4.30 and a pIC50 (human FABP4 (huFABP4)) of 5.04.

Work on `O=C(O)C1CCCCN1C(=O)Nc1ccccc1-c1ccccc1` (centres unmarked) [Example 1, 1-(Biphenyl-2-ylcarbamoyl)-piperidine-2-carboxylic acid] yielded a pIC50 (human FABP5 (huFABP5); [1]) of under 4.30 and a pIC50 (human FABP4 (huFABP4); [1]) of 5.09.

Work on `O=C(O)[C@H]1CCCN1C(=O)Nc1ccc(Cl)cc1-c1ccccc1` [Example 2, (R)-1-(5-chlorobiphenyl-2-ylcarbamoyl)pyrrolidine-2-carboxylic acid] yielded a pIC50 (human FABP5 (huFABP5); [1]) of 4.68 and a pIC50 (human FABP4 (huFABP4); [1]) of 5.69.

`O=C(O)[C@H]1CCCN1C(=O)Nc1ccccc1Oc1ccccc1` [Example 3, (R)-1-(2-phenoxyphenylcarbamoyl)pyrrolidine-2-carboxylic acid] gave a pIC50 (human FABP5 (huFABP5); [1]) of under 4.30 and a pIC50 (human FABP4 (huFABP4); [1]) of 4.93.

Molecule `O=C(O)[C@H]1CCCN1C(=O)Nc1ccccc1Cc1ccccc1` [Example 4, (R)-1-(2-benzylphenylcarbamoyl)pyrrolidine-2-carboxylic acid] has a pIC50 (human FABP5 (huFABP5); [1]) of under 4.30 and a pIC50 (human FABP4 (huFABP4); [1]) of 5.48.

Molecule `O=C(O)[C@H]1CCCN1C(=O)Nc1cc(Cl)ccc1Oc1ccccc1` [Example 5, (R)-1-(5-chloro-2-phenoxyphenylcarbamoyl)pyrrolidine-2-carboxylic acid] has a pIC50 (human FABP5 (huFABP5); [1]) of under 4.30 and a pIC50 (human FABP4 (huFABP4); [1]) of 5.13.

In the case of `O=C(Nc1ccccc1-c1ccccc1)N1CCCC1(C(=O)O)c1ccccc1` (centres unmarked) [Example 6, 1-(Biphenyl-2-ylcarbamoyl)-2-phenyl-pyrrolidine-2-carboxylic acid], the pIC50 (human FABP5 (huFABP5); [1]) was under 4.30 and the pIC50 (human FABP4 (huFABP4); [1]) was 6.21.

Work on `O=C(O)C1SCCN1C(=O)Nc1ccccc1-c1ccccc1` (centres unmarked) [Example 7, 3-(Biphenyl-2-ylcarbamoyl)-thiazolidine-2-carboxylic acid] yielded a pIC50 (human FABP5 (huFABP5); [1]) of under 4.30 and a pIC50 (human FABP4 (huFABP4); [1]) of 5.01.

`O=C(O)[C@H]1CSCN1C(=O)Nc1ccccc1-c1ccccc1` [Example 8, (S)-3-(Biphenyl-2-ylcarbamoyl)-thiazolidine-4-carboxylic acid] showed a pIC50 (human FABP5 (huFABP5); [1]) of under 4.30 and a pIC50 (human FABP4 (huFABP4); [1]) of 6.48.

In the case of `O=C(O)[C@H]1CCCN1C(=O)Nc1cc(Cl)ccc1-c1ccccc1` [Example 10, (R)-1-(4-chlorobiphenyl-2-ylcarbamoyl)pyrrolidine-2-carboxylic acid], the pIC50 (human FABP5 (huFABP5); [1]) was under 5.84 and the pIC50 (human FABP4 (huFABP4); [1]) was 6.92.

In the case of `O=C(O)[C@H]1CCCN1C(=O)Nc1c(F)cccc1-c1ccccc1` [Example 11, (R)-1-(3-fluorobiphenyl-2-ylcarbamoyl)pyrrolidine-2-carboxylic acid], the pIC50 (human FABP5 (huFABP5); [1]) was under 4.30 and the pIC50 (human FABP4 (huFABP4); [1]) was 6.07.

`O=C(O)[C@H]1CCN1C(=O)Nc1cc(Cl)ccc1-c1ccccc1` [Example 12, (R)-1-(4-chlorobiphenyl-2-ylcarbamoyl)azetidine-2-carboxylic acid] gave a pIC50 (human FABP5 (huFABP5); [1]) of under 4.30 and a pIC50 (human FABP4 (huFABP4); [1]) of 7.70.

Molecule `O=C(O)[C@H]1CCCN1C(=O)Nc1cc(C(F)(F)F)ccc1-c1ccccc1` [Example 13, (R)-1-(4-(trifluoromethyl)biphenyl-2-ylcarbamoyl)pyrrolidine-2-carboxylic acid] has a pIC50 (human FABP5 (huFABP5); [1]) of under 4.30 and a pIC50 (human FABP4 (huFABP4); [1]) of 5.40.

Work on `O=C(O)[C@H]1CCCN1C(=O)Nc1cc(F)cc(F)c1-c1ccccc1` [Example 14, (R)-1-(4,6-difluorobiphenyl-2-ylcarbamoyl)pyrrolidine-2-carboxylic acid] yielded a pIC50 (human FABP5 (huFABP5); [1]) of under 5.16 and a pIC50 (human FABP4 (huFABP4); [1]) of 6.51.

`CC1(C(=O)O)CCCN1C(=O)Nc1ccccc1-c1ccccc1` (centres unmarked) [Example 15, 1-(biphenyl-2-ylcarbamoyl)-2-methylpyrrolidine-2-carboxylic acid] gave a pIC50 (human FABP5 (huFABP5); [1]) of under 4.30 and a pIC50 (human FABP4 (huFABP4); [1]) of 6.07.

With `O=C(O)[C@H]1CCCN1C(=O)Nc1cc(F)ccc1-c1ccccc1` [Example 16, (R)-1-(4-fluorobiphenyl-2-ylcarbamoyl)pyrrolidine-2-carboxylic acid] the pIC50 (human FABP5 (huFABP5); [1]) was under 4.30 and the pIC50 (human FABP4 (huFABP4); [1]) was 5.97.

`O=C(O)[C@H]1CCCN1C(=O)Nc1cc(OC(F)(F)F)ccc1-c1ccccc1` [Example 17, (R)-1-(4-(trifluoromethoxy)biphenyl-2-ylcarbamoyl)pyrrolidine-2-carboxylic acid] gave a pIC50 (human FABP5 (huFABP5); [1]) of under 4.30 and a pIC50 (human FABP4 (huFABP4); [1]) of 5.24.

Molecule `O=C(O)[C@H]1CCCN1C(=O)Nc1cc(Cl)cc(-c2ccccc2)c1-c1ccccc1` [Example 19, (R)-1-(5′-Chloro-[1,1′;2′,1″]terphenyl-3′-ylcarbamoyl)-pyrrolidine-2-carboxylic acid] has a pIC50 (human FABP5 (huFABP5); [1]) of 5.91 and a pIC50 (human FABP4 (huFABP4); [1]) of 6.30.

`N#Cc1ccc(-c2ccccc2)c(NC(=O)N2CCC[C@@H]2C(=O)O)c1` [Example 20, (R)-1-(4-cyanobiphenyl-2-ylcarbamoyl)pyrrolidine-2-carboxylic acid] was tested, and the pIC50 (human FABP5 (huFABP5); [1]) was under 4.30 and the pIC50 (human FABP4 (huFABP4); [1]) was 4.98.

For `O=C(O)[C@H]1CCCN1C(=O)Nc1c(-c2ccccc2)sc2ccccc12` [Example 21, (R)-1-(2-phenylbenzo[b]thiophen-3-ylcarbamoyl)pyrrolidine-2-carboxylic acid], the pIC50 (human FABP5 (huFABP5); [1]) was under 4.30 and the pIC50 (human FABP4 (huFABP4); [1]) was 6.17.

Molecule `O=C(O)[C@H]1CCCN1C(=O)Nc1c(-c2ccccc2)sc2ncccc12` [Example 22, (R)-1-(2-phenylthieno[2,3-b]pyridin-3-ylcarbamoyl)pyrrolidine-2-carboxylic acid] has a pIC50 (human FABP5 (huFABP5); [1]) of under 4.30 and a pIC50 (human FABP4 (huFABP4); [1]) of 5.78.

`C=CCc1cc(Cl)cc(NC(=O)N2CCC[C@@H]2C(=O)O)c1-c1ccccc1` [Example 23, (R)-1-(6-allyl-4-chlorobiphenyl-2-ylcarbamoyl)pyrrolidine-2-carboxylic acid] was tested, and the pIC50 (human FABP5 (huFABP5); [1]) was 5.89 and the pIC50 (human FABP4 (huFABP4); [1]) was 6.96.

Work on `O=C(O)[C@H]1CCCN1C(=O)Nc1ccsc1-c1ccccc1` [Example 24, (R)-1-(2-phenylthiophen-3-ylcarbamoyl)pyrrolidine-2-carboxylic acid] yielded a pIC50 (human FABP5 (huFABP5); [1]) of under 4.30 and a pIC50 (human FABP4 (huFABP4); [1]) of 5.78.

Molecule `N#Cc1cc(Cl)cc(NC(=O)N2CCC[C@@H]2C(=O)O)c1-c1ccccc1` [Example 25, (R)-1-(4-chloro-6-cyanobiphenyl-2-ylcarbamoyl)pyrrolidine-2-carboxylic acid] has a pIC50 (human FABP5 (huFABP5); [1]) of 4.82 and a pIC50 (human FABP4 (huFABP4); [1]) of 6.72.

`O=C(O)[C@H]1CCCN1C(=O)Nc1cc(Cl)cc(C2=CCCCC2)c1-c1ccccc1` [Example 26, (R)-1-[4-chloro-6-(cyclohexen-1-yl)-biphenyl-2-ylcarbamoyl]pyrrolidine-2-carboxylic acid] was tested, and the pIC50 (human FABP5 (huFABP5); [1]) was 7.15 and the pIC50 (human FABP4 (huFABP4); [1]) was 6.28.

`O=C(O)[C@@H]1CCN1C(=O)Nc1cc(Cl)ccc1-c1ccccc1` [Example 27, (S)-1-(4-chlorobiphenyl-2-ylcarbamoyl)azetidine-2-carboxylic acid] was tested, and the pIC50 (human FABP5 (huFABP5); [1]) was under 4.30 and the pIC50 (human FABP4 (huFABP4); [1]) was 5.91.

`O=C(O)[C@H]1CCN1C(=O)Nc1ccccc1-c1ccccc1` [Example 28, (R)-1-(biphenyl-2-ylcarbamoyl)azetidine-2-carboxylic acid] showed a pIC50 (human FABP5 (huFABP5); [1]) of under 4.30 and a pIC50 (human FABP4 (huFABP4); [1]) of 7.10.

`O=C(O)[C@H]1CCN1C(=O)Nc1cc(Cl)ccc1-c1ccc(F)cc1` [Example 29, (R)-1-(4-chloro-4′-fluorobiphenyl-2-ylcarbamoyl)azetidine-2-carboxylic acid] was tested, and the pIC50 (human FABP5 (huFABP5); [1]) was under 4.30 and the pIC50 (human FABP4 (huFABP4); [1]) was 7.52.

In the case of `O=C(O)[C@H]1CCN1C(=O)Nc1cc(Cl)c(F)cc1-c1ccccc1` [Example 30, (R)-1-(4-chloro-5-fluorobiphenyl-2-ylcarbamoyl)azetidine-2-carboxylic acid], the pIC50 (human FABP5 (huFABP5); [1]) was 4.40 and the pIC50 (human FABP4 (huFABP4); [1]) was 7.70.

For `Cc1cc(-c2ccccc2)c(NC(=O)N2CC[C@@H]2C(=O)O)cc1Cl` [Example 31, (R)-1-(4-chloro-5-methylbiphenyl-2-ylcarbamoyl)azetidine-2-carboxylic acid], the pIC50 (human FABP5 (huFABP5); [1]) was 5.29 and the pIC50 (human FABP4 (huFABP4); [1]) was 7.52.

For `O=C(O)[C@H]1CCN1C(=O)Nc1cc(Cl)ccc1-c1cccc(F)c1F` [Example 36, (R)-1-(4-chloro-2′,3′-difluorobiphenyl-2-ylcarbamoyl)azetidine-2-carboxylic acid], the pIC50 (human FABP5 (huFABP5); [1]) was under 4.30 and the pIC50 (human FABP4 (huFABP4); [1]) was 7.22.

Molecule `O=C(O)[C@H]1CCN1C(=O)Nc1cc(Cl)ccc1-c1ccccc1F` [Example 37, (R)-1-(4-chloro-2′-fluorobiphenyl-2-ylcarbamoyl)azetidine-2-carboxylic acid] has a pIC50 (human FABP5 (huFABP5); [1]) of under 4.30 and a pIC50 (human FABP4 (huFABP4); [1]) of 7.52.

With `O=C(O)[C@H]1CCN1C(=O)Nc1cc(Cl)ccc1-c1cccc(F)c1` [Example 38, (R)-1-(4-chloro-3′-fluorobiphenyl-2-ylcarbamoyl)azetidine-2-carboxylic acid] the pIC50 (human FABP5 (huFABP5); [1]) was under 4.30 and the pIC50 (human FABP4 (huFABP4); [1]) was 7.52.

`O=C(O)[C@H]1CCN1C(=O)Nc1cc(Cl)ccc1-c1cc(F)cc(F)c1` [Example 39, (R)-1-(4-chloro-3′,5′-difluorobiphenyl-2-ylcarbamoyl)azetidine-2-carboxylic acid] gave a pIC50 (human FABP5 (huFABP5); [1]) of under 4.30 and a pIC50 (human FABP4 (huFABP4); [1]) of 7.22.

In the case of `O=C(O)[C@H]1CCCN1C(=O)Nc1cc(Cl)ccc1-c1ccsc1` [Example 52, (R)-1-(5-chloro-2-(thiophen-3-yl)phenylcarbamoyl)pyrrolidine-2-carboxylic acid], the pIC50 (human FABP5 (huFABP5); [1]) was under 4.98 and the pIC50 (human FABP4 (huFABP4); [1]) was 7.22.

In the case of `O=C(O)[C@H]1CCCN1C(=O)Nc1cc(Cl)ccc1-c1csc2ccccc12` [Example 53, (R)-1-(2-(benzo[b]thiophen-3-yl)-5-chlorophenylcarbamoyl)pyrrolidine-2-carboxylic acid], the pIC50 (human FABP5 (huFABP5); [1]) was 4.37 and the pIC50 (human FABP4 (huFABP4); [1]) was 6.47.

For `O=C(O)[C@H]1CCCN1C(=O)Nc1cc(Cl)ccc1-c1ccc(F)cc1` [Example 54, (R)-1-(4-chloro-4′-fluorobiphenyl-2-ylcarbamoyl)pyrrolidine-2-carboxylic acid], the pIC50 (human FABP5 (huFABP5); [1]) was under 4.53 and the pIC50 (human FABP4 (huFABP4); [1]) was 7.22.

Molecule `O=C(O)[C@H]1CCCN1C(=O)Nc1cc(Cl)ccc1-c1cccc(Cl)c1` [Example 55, (R)-1-(3′,4-dichlorobiphenyl-2-ylcarbamoyl)pyrrolidine-2-carboxylic acid] has a pIC50 (human FABP5 (huFABP5); [1]) of under 4.30 and a pIC50 (human FABP4 (huFABP4); [1]) of 6.11.

`NC(=O)c1cccc(-c2ccc(Cl)cc2NC(=O)N2CCC[C@@H]2C(=O)O)c1` [Example 56, (R)-1-(3′-carbamoyl-4-chlorobiphenyl-2-ylcarbamoyl)pyrrolidine-2-carboxylic acid] was tested, and the pIC50 (human FABP5 (huFABP5); [1]) was under 4.30 and the pIC50 (human FABP4 (huFABP4); [1]) was 4.96.

Molecule `O=C(O)[C@H]1CCCN1C(=O)Nc1cc(Cl)ccc1C1=CCCCC1` [Example 57, (R)-1-[5-chloro-2-(cyclohexen-1-yl)phenylcarbamoyl]pyrrolidine-2-carboxylic acid] has a pIC50 (human FABP5 (huFABP5); [1]) of under 4.30 and a pIC50 (human FABP4 (huFABP4); [1]) of 5.96.
